Test results reported in the supplement of paper PMC10307832.

Legend:
Assay in all cases: relative viability (nuclei count vs DMSO), 5 days (fraction); higher = more cells survive
Dabrafenib + Bortezomib = compound: CC(C)(C)c1nc(-c2cccc(NS(=O)(=O)c3c(F)cccc3F)c2F)c(-c2ccnc(N)n2)s1 [Dabrafenib] + CC(C)C[C@H](NC(=O)[C@H](Cc1ccccc1)NC(=O)c1cnccn1)B(O)O [Bortezomib] (partner 0.002 µM)
Summary of the method: (§1)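 A single step with final 0.05% Triton X-100, 1% formaldehyde and 1 ug/ml Hoechst fixed the cells and stained nuclei 5 days after treatment. Lung cancer cell lines in 1536-well plates had been treated by pin tool the day after seeding with one drug alone or a fixed anchor-drug dose plus five library-drug doses (not always all listed) in √10 steps, and nuclei were counted on 4× images. Relative viability is the ratio of nuclei in treated wells to nuclei in vehicle wells, taken as the median of duplicate plates.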

VX-702 + Dasatinib = compound: NC(=O)c1ccc(N(C(N)=O)c2c(F)cccc2F)nc1-c1ccc(F)cc1F [VX-702] + Cc1nc(Nc2ncc(C(=O)Nc3c(C)cccc3Cl)s2)cc(N2CCN(CCO)CC2)n1 [Dasatinib] (partner 0.075 µM)
Summary of the method: as §1

Dabrafenib + Linsitinib = compound: CC(C)(C)c1nc(-c2cccc(NS(=O)(=O)c3c(F)cccc3F)c2F)c(-c2ccnc(N)n2)s1 [Dabrafenib] + C[C@]1(O)C[C@@H](c2nc(-c3ccc4ccc(-c5ccccc5)nc4c3)c3c(N)nccn32)C1 [Linsitinib] (partner 1 µM)
Summary of the method: as §1

VX-702 + Palbociclib = compound: NC(=O)c1ccc(N(C(N)=O)c2c(F)cccc2F)nc1-c1ccc(F)cc1F [VX-702] + CC(=O)c1c(C)c2cnc(Nc3ccc(N4CCNCC4)cn3)nc2n(C2CCCC2)c1=O [Palbociclib] (partner 0.5 µM)
Summary of the method: as §1

| Cell Line | relative viability (Dabrafenib + Bortezomib; first compound 0.003 µM) | relative viability (Dabrafenib + Bortezomib; first compound 0.03 µM) | relative viability (Dabrafenib + Bortezomib; first compound 0.09487 µM) | relative viability (Dabrafenib + Bortezomib; first compound 0.3 µM) | relative viability (VX-702 + Dasatinib; first compound 0.02 µM) | relative viability (VX-702 + Dasatinib; first compound 0.6325 µM) | relative viability (VX-702 + Dasatinib; first compound 2 µM) | relative viability (Dabrafenib + Linsitinib; first compound 0.003 µM) | relative viability (Dabrafenib + Linsitinib; first compound 0.03 µM) | relative viability (Dabrafenib + Linsitinib; first compound 0.09487 µM) | relative viability (Dabrafenib + Linsitinib; first compound 0.3 µM) | relative viability (VX-702 + Palbociclib; first compound 0.02 µM) | relative viability (VX-702 + Palbociclib; first compound 0.2 µM) | relative viability (VX-702 + Palbociclib; first compound 0.6325 µM) | relative viability (VX-702 + Palbociclib; first compound 2 µM) | relative viability (Dabrafenib + Bortezomib; first compound 0.009487 µM) | relative viability (VX-702 + Dasatinib; first compound 0.2 µM) | relative viability (Dabrafenib + Linsitinib; first compound 0.009487 µM) |
| --- | --- | --- | --- | --- | --- | --- | --- | --- | --- | --- | --- | --- | --- | --- | --- | --- | --- | --- |
| NCI-H1666 | 0.806 | 0.957 | 0.859 | 0.814 | 0.765 | 0.876 | 0.641 | 0.841 | 0.846 | 1.03 | 0.931 | 0.683 | 0.69 | 0.595 | 0.526 | – | – | – |
| NCI-H1734 | – | 0.549 | 0.757 | 0.828 | 0.51 | 0.445 | 0.371 | – | 0.602 | 0.701 | 0.893 | 0.347 | 0.288 | 0.323 | 0.308 | 0.936 | 0.413 | 0.924 |
| NCI-H1755 | 0.972 | 0.908 | 0.914 | 0.903 | 0.44 | 0.367 | 0.415 | 0.917 | 0.887 | 0.975 | 0.99 | 0.494 | 0.388 | 0.453 | 0.422 | 0.924 | 0.432 | 0.984 |
| NCI-H1792 | – | 0.897 | 0.885 | 0.893 | 0.556 | 0.714 | 0.714 | – | 0.485 | 0.528 | 0.394 | 0.614 | 0.587 | 0.653 | 0.546 | 0.923 | 0.781 | 0.599 |
| NCI-H1915 | 0.975 | 0.899 | 0.584 | 0.502 | 0.328 | 0.281 | 0.327 | 1.11 | 1.08 | 1.02 | 0.964 | 0.549 | 0.499 | 0.526 | 0.546 | 0.99 | 0.282 | 1.14 |
| NCI-H1975 | 0.333 | 0.374 | 0.49 | 0.429 | 0.365 | 0.402 | 0.382 | 1.06 | 0.889 | 0.995 | 0.905 | 0.497 | 0.446 | 0.518 | 0.624 | 0.432 | 0.344 | 1.04 |
| NCI-H1993 | 1.2 | 1.31 | 1.24 | 1.7 | 0.512 | 0.615 | 0.59 | 0.633 | 0.658 | 0.835 | 0.721 | 0.655 | 0.696 | 0.69 | 0.745 | 1.46 | 0.611 | 0.772 |
| NCI-H2009 | 0.342 | 0.907 | 0.554 | 0.517 | 0.35 | 0.429 | 0.452 | 1.16 | 1.08 | 1.01 | 0.861 | 0.247 | 0.25 | 0.257 | 0.246 | 1.06 | 0.401 | 1.09 |
| NCI-H2023 | 0.78 | 1.04 | 0.977 | 1.02 | 0.534 | 0.576 | 0.662 | 0.639 | 0.595 | 0.715 | 0.792 | 0.381 | 0.347 | 0.404 | 0.436 | 1.09 | 0.724 | 0.667 |
| NCI-H2085 | 1.03 | 0.896 | 0.976 | 1.04 | 0.209 | 0.207 | 0.27 | 0.827 | 0.944 | 0.908 | 0.845 | 0.507 | 0.46 | 0.506 | 0.516 | 1.13 | 0.339 | 0.857 |
| NCI-H2087 | 0.814 | 0.564 | 0.648 | 0.761 | 0.953 | 0.959 | 0.967 | 0.979 | 0.779 | 0.805 | 0.638 | 0.203 | 0.228 | 0.214 | 0.225 | 0.752 | 0.856 | 0.862 |
| NCI-H2126 | 1.1 | 1.12 | 1.13 | 1.15 | 0.637 | 0.549 | 0.573 | 0.698 | 0.681 | 0.757 | 0.715 | 0.365 | 0.323 | 0.341 | 0.35 | 1.1 | 0.542 | 0.725 |
| NCI-H2228 | 0.897 | 0.859 | 0.912 | 1.03 | 0.466 | 0.461 | 0.535 | 0.579 | 0.524 | 0.782 | 0.81 | 0.604 | 0.763 | 0.676 | 1.07 | 0.829 | 0.499 | 0.839 |
| NCI-H2347 | – | – | – | 0.84 | 0.325 | 0.277 | 0.294 | 0.675 | 1.08 | 1.03 | 0.942 | 0.455 | 0.473 | 0.466 | 0.476 | 1.2 | – | 0.965 |
| NCI-H2405 | – | 0.766 | 0.867 | 0.959 | 0.259 | 0.228 | 0.193 | – | – | 0.735 | 0.721 | 0.536 | 0.515 | 0.457 | 0.493 | 0.91 | 0.207 | 0.967 |
| NCI-H3122 | 1.04 | 1.12 | 1.06 | 1.1 | 0.921 | 0.752 | 0.789 | 0.943 | 1.01 | 1.01 | 1.04 | 0.243 | 0.19 | 0.184 | 0.215 | 1.01 | 0.84 | 1.02 |
| PC-3 [JPC-3] | 0.745 | 0.773 | 0.875 | 0.857 | 1.03 | 1.07 | 1.06 | 0.943 | 0.955 | 0.964 | 0.978 | 0.568 | 0.517 | 0.566 | 0.553 | 0.9 | 1.05 | 0.977 |
| PC-14 | 0.968 | 0.817 | 0.919 | 1.03 | 0.337 | 0.295 | 0.188 | 0.956 | 0.957 | 0.975 | 0.984 | 0.519 | 0.595 | 0.561 | 0.732 | 0.846 | 0.323 | 1.03 |
